# In paper PMC8696185, “Purification and Characterization of Plantaricin YKX and Assessment of Its Inhibitory Activity Against Alicyclobacillus spp” (Frontiers in Microbiology, 2021):
# Bridges are numbered along the chain shown (N, C = ends). Where no end group is shown, it is not given here. [ ]: non-standard residue; d: D form. Dhb = C/C=C(\N)C(=O)O; Dha = C=C(N)C(=O)O
# Assays:
# [1] = tested on: luxS gene of A. acidoterrestris; test: RT-qPCR, transcription of luxS; format: cell-based, Alicyclobacillus acidoterrestris; details: co-cultured at 0.5 × MIC, 0.7 × MIC, and 0.9 × MIC, overnight incubation
# Method: To verify the effect of plantaricin YKX on the QS system, Real-Time Quantitative PCR (RT-qPCR) was used to detect the transcription level changes of the gene (luxS) encoding a QS signal (Al-2) synthesis enzyme (LuxS) in A. acidoterrestris. The mid-logarithmic phase cells of A. acidoterrestris were treated with plantaricin YKX at 0.5 ×, 0.7 ×, or 0.9 × MIC. After overnight incubation, RNA was extracted according to the Trizol method.
# The reverse transcription reaction system (10 μL) contained: Total RNA 2 μL; dNTP 0.5 μL; Random primers 0.5 μL; and distilled water without RNAase 4 μL. All samples were maintained at 70°C for 5 min and then kept immediately in an ice bath. 5X reverse transcription buffer 2 μL, RNAase inhibitor 0.5 μL, and MMLV reverse transcription enzyme 0.5 μL were added immediately. Thus, the reverse transcription conditions were: 30°C for 10 min, 42°C for 1 h, 70°C for 15 min, and 4°C forever. After the reverse transcription reaction, the DNA templates were diluted 5 times and stored at −20°C until used.
# PCR reaction included: upstream primer (10 μM) 0.2 μL, downstream primer (10 μM) 0.2 μL, 2 × Ultra SYBR Mixture 5 μL, ddH2O 3.6 μL, DNA templates 1 μL. The PCR reaction parameters were: 95°C for 10 min, 95°C for 15 s, 60°C for 1 min, 40 cycles. Primers (5′-[…]-3′; 5′-[…]-3′) were designed according to the gene sequence of luxS by the Primer 5.0 software.
# [2] = tested on: Saccharomyces cerevisiae CICC 1002; test: Minimal inhibitory concentration (MIC); format: cell-based; details: twofold serial dilution, 96-well plate, 24 h at 30°C, OD600; highest conc. not given in μg/mL (stock 1,024 IU/mL)
# Method: (§1) The minimal inhibitory concentration (MIC) of plantaricin YKX toward indicator strains was measured according to the [Clinical and Laboratory Standards Institute (2012)]. Indicator strains in the mid-logarithmic growth phase were adjusted to the OD600 of 0.5 and diluted 100-fold with appropriate media. First, the plantaricin YKX solution (1,024 IU/mL) was twofold serially diluted with distilled water. Next, 100 μL each indicator strain suspension and aliquots of plantaricin YKX solution were incubated [1:1 (v/v) ratio] in a 96-well plate for 24 h at 45°C with Alicyclobacillus spp. as indicator strain and at 30°C for other indicator strains listed in Table 1. The efficacy of nisin (> 90% pure, J & K Chemical Technology) was also determined. As a control, distilled water was added to the indicator strains suspensions. Following incubation, the MICs were determined by measuring the OD600 using a microplate reader (SpectraMax 190, Molecular Devices, CA, United States).
# [3] = tested on: Pseudomonas aeruginosa CICC 21636; test: Minimal inhibitory concentration (MIC); format: cell-based; details: twofold serial dilution, 96-well plate, 24 h at 30°C, OD600; highest conc. not given in μg/mL (stock 1,024 IU/mL)
# Method: as §1
# [4] = tested on: Enterobacter cloacae CICC 21539; test: Minimal inhibitory concentration (MIC); format: cell-based; details: twofold serial dilution, 96-well plate, 24 h at 30°C, OD600; highest conc. not given in μg/mL (stock 1,024 IU/mL)
# Method: as §1
# [5] = tested on: Aspergillus niger CICC 2124; test: Minimal inhibitory concentration (MIC); format: cell-based; details: twofold serial dilution, 96-well plate, 24 h at 30°C, OD600; highest conc. not given in μg/mL (stock 1,024 IU/mL)
# Method: as §1
# [6] = tested on: Candida albicans CICC 1965; test: Minimal inhibitory concentration (MIC); format: cell-based; details: twofold serial dilution, 96-well plate, 24 h at 30°C, OD600; highest conc. not given in μg/mL (stock 1,024 IU/mL)
# Method: as §1
# [7] = tested on: Salmonella paratyphi β CICC 10437; test: Minimal inhibitory concentration (MIC); format: cell-based; details: twofold serial dilution, 96-well plate, 24 h at 30°C, OD600; highest conc. not given in μg/mL (stock 1,024 IU/mL)
# Method: as §1
# [8] = tested on: A. acidoterrestris DSM3922; test: Guaiacol production, HPLC; format: cell-based, Alicyclobacillus acidoterrestris; details: AAM broth, 45°C, HPLC 275 nm, control 20.6 μg/L
# Method: A. acidoterrestris DSM3922 was inoculated in AAM broth containing plantaricin YKX at 0.5 ×, 0.7 × or 0.9 × MIC (control without plantaricin YKX) and cultured at 45°C. Samples were tested for OD600 after 24 h. After the samples were centrifuged at 8,000 g at 4°C and passed through 0.22 μm filter membrane, the guaiacol content was determined with an analytical HPLC dual pump Shimadzu LC-20 AB system equipped with UltimateXB-C18 column (4.6 × 250 mm, particle size 5 μm, Kyoto, Japan) ([Lin et al., 2006]). The mobile phase was 30% (v/v) acetonitrile in 0.1% (v/v) formic acid. The column temperature was maintained at 40°C. The mobile phase flow rate was set at 1 mL/min. The detection wavelength was 275 nm.
# [9] = tested on: Clostridium butyricum CICC 10350; details: CICC 10350, 24 h
# [10] = tested on: A. acidoterrestris DSM3922 as indicator stain; test: Heat, storage and pH stability, residual antibacterial activity; format: physicochemical, Alicyclobacillus acidoterrestris; set-up: key to Antibacterial ability after pH 2–7 / Antibacterial ability after 60, 80, and 100°C / Antibacterial ability after 37°C for 14 d / Antibacterial ability after 2 months at 4°C: Antimicrobial activity +: there is a clear inhibition zone.; Antimicrobial activity –: there is no inhibition zone; key to Antibacterial ability after pH 9–10: −: Antimicrobial activity –: there is no inhibition zone; details: agar well diffusion
# Method: (§2) The effect of temperature (60, 80, or 100°C) on the activity of purified plantaricin YKX was analyzed within a certain time (10, 20, or 30 min) ([An et al., 2017]). The long-term stability was investigated at 37°C for […] and at 4°C for 3 months ([Yue et al., 2013]). The impact of pH on plantaricin YKX was analyzed by adjusting pH to 2–10 with 1 M HCl and 1 M NaOH solutions and determining residual activities after maintaining at 37°C for 2 h ([Yue et al., 2013]). The effect of enzymes on the antibacterial activity of plantaricin YKX was determined following incubation with enzymes lipase [pH 7.0, 10 mM phosphate-buffered saline (PBS)], α-amylase (pH 7.0, 10 mM PBS), trypsin (pH 7.5, 10 mM PBS), proteinase K (pH 7.5, 50 mM Tris-HCl), papain (pH 7.5, 10 mM PBS), and pepsin (pH 3.0, 0.1 M HCl) at 37°C for 30 min with their optimal pH and a final concentration of 1.0 mg/mL. The enzymes were inactivated by heating at 100°C for 5 min, and the pH was then adjusted to pH 6.0 ([Yue et al., 2013]). Plantaricin YKX without any treatments was employed as a control. Agar well diffusion assay was utilized to determine the antibacterial activity ([Pei et al., 2020]).
# [11] = tested on: A. acidoterrestris ATCC 3922; test: Kill kinetics (time-killing curves); format: cell-based, Alicyclobacillus acidoterrestris; details: for Time within which all cells were inactivated: at the MICs (1 × MIC)
# Source text: FIGURE 3 Antibacterial activity of plantaricin YKX against A. acidoterrestris.
# [12] = tested on: A. acidoterrestris DSM3922 as indicator stain; test: Effect of enzymes on antibacterial activity (stability); format: in vitro ADME, Alicyclobacillus acidoterrestris; set-up: key to Antibacterial ability after Lipase, α-AMYLASE / Antibacterial ability after Trypsin, pepsin: Antimicrobial activity +: there is a clear inhibition zone.; Antimicrobial activity –: there is no inhibition zone; key to Antibacterial ability after Proteinase K, papain, α-chymotrypsin: −: Antimicrobial activity –: there is no inhibition zone; details: enzyme 1.0 mg/mL, 37°C for 30 min, agar well diffusion
# Method: as §2
# [13] = tested on: A. acidoterrestris DSM3922 endospores; test: Endospore germination, microscopic counting; format: cell-based, Alicyclobacillus acidoterrestris; details: 2 h post-germination treatment, untreated 43.6%
# [14] = Heat, storage and pH stability (indicator not given); format: physicochemical
# Method: as §2
# [15] = tested on: A. acidoterrestris DSM3922 cells; test: Flow cytometry, propidium iodide uptake (membrane integrity); format: cell-based, Alicyclobacillus acidoterrestris; details: 2 × MIC, incubation for 30 min, 45°C, propidium iodide 10 μg/mL
# Method: Log phase A. acidoterrestris DSM3922 cells were incubated with plantaricin YKX at 0.5×, 1×, or 2× MIC (control: cells treated with PBS) at 45°C for 15 min. Next, they were centrifuged, rinsed, and treated with propidium iodide (10 μg/mL) for 15 min at 45°C ([Gut et al., 2011]). After removing the unbound stain, the fluorescence intensities were analyzed by an AccuriC6 flow cytometer (BD Biosciences, MI, United States). Forty thousand events were acquired per sample and detected at excitation (488 nm) and emission wavelengths (525 nm).
# [16] = tested on: E. coli CICC10302 as indicator stain; test: Effect of enzymes on antibacterial activity (stability); format: in vitro ADME, Escherichia coli; set-up: key to Antibacterial ability after Lipase, α-AMYLASE / Antibacterial ability after Trypsin, pepsin: Antimicrobial activity +: there is a clear inhibition zone.; Antimicrobial activity –: there is no inhibition zone; key to Antibacterial ability after Proteinase K, papain, α-chymotrypsin: −: Antimicrobial activity –: there is no inhibition zone; details: enzyme 1.0 mg/mL, 37°C for 30 min, agar well diffusion
# Method: as §2
# [17] = tested on: E. coli CICC10302 as indicator stain; test: Heat, storage and pH stability, residual antibacterial activity; format: physicochemical, Escherichia coli; set-up: key to Antibacterial ability after pH 2–7 / Antibacterial ability after 60, 80, and 100°C / Antibacterial ability after 37°C for 14 d / Antibacterial ability after 2 months at 4°C: Antimicrobial activity +: there is a clear inhibition zone.; Antimicrobial activity –: there is no inhibition zone; key to Antibacterial ability after pH 9–10: −: Antimicrobial activity –: there is no inhibition zone; details: agar well diffusion
# Method: as §2
# [18] = tested on: Alicyclobacillus spp.; details: literature value; ref Yamazaki et al., 2000; cited from earlier work
# Method: On the other hand, the MICs of plantaricin YKX and nisin inactivated all cells within 180 min.
# [19] = pH adjusted with 1 M HCl / 1 M NaOH, 37°C for 2 h
# [20] = optimal pH (proteinase K pH 7.5 Tris-HCl, papain pH 7.5 PBS)
# [21] = pH 7.0, 10 mM PBS, enzyme inactivated 100°C 5 min, pH adjusted to 6.0
# [22] = trypsin pH 7.5 10 mM PBS, pepsin pH 3.0 0.1 M HCl
substance,measurement,setting,value
KYGNGLSRIFSALK [plantaricin YKX],Expression of the luxS gene,[1],increased significantly
same,MICs,[2],> highest conc. tested
same,MICs,[3],> highest conc. tested
same,MICs,[4],> highest conc. tested
same,MICs,[5],> highest conc. tested
same,MICs,[6],> highest conc. tested
same,MICs,[7],> highest conc. tested
same,Production of guaiacol,[8]; 0.5 × MIC,16.8 µg/L
same,Production of guaiacol,[8]; 0.7 × MIC,10.1 µg/L
same,Production of guaiacol,[8]; 0.9 × MIC,8.9 µg/L
same,MICs,[9],32 µg/mL
same,"Antibacterial ability after 60, 80, and 100°C","[10]; heated for 10, 20, or 30 min",+
same,Antibacterial ability after 2 months at 4°C,[10]; long-term storage,+
same,Antibacterial ability after 37°C for 14 d,[10]; long-term storage,+
same,Antibacterial ability after pH 2–7,[10]; [19],+
same,Antibacterial ability after pH 9–10,[10]; [19],–
same,Time within which the number of cells was substantially decreased,[11]; 2 MIC,≤ 30 min
same,Time within which all cells were inactivated,[11],≤ 180 min
same,"Antibacterial ability after Proteinase K, papain, α-chymotrypsin",[12]; [20],–
same,"Antibacterial ability after Lipase, α-AMYLASE",[12]; [21],+
same,"Antibacterial ability after Trypsin, pepsin",[12]; [22],+
same,Germination rate of spores,[13]; 0.5 × MIC,55.4%
same,Germination rate of spores,[13]; 0.7 × MIC,70.5%
same,Germination rate of spores,[13]; 0.9 × MIC,81.7%
same,Antibacterial activity after storage,"[14]; 3 months at 4°C, agar well diffusion",did not alter its antibacterial activity
same,pH at which the activity was lost,"[14]; 37°C for 2 h at adjusted pH, residual activity by agar well diffusion",9.0
same,Antibacterial activity after storage,"[14]; 37°C for up to 14 days, agar well diffusion",did not alter its antibacterial activity
same,pH range in which active (abstract),[14]; as stated in the abstract,3–8
same,"Heat stability, activity after heating","[14]; heating at 60, 80, or 100°C (10, 20, or 30 min), agar well diffusion",retaining activity
same,Proportion of PI-stained cells,[15],91.6%
same,"Antibacterial ability after Proteinase K, papain, α-chymotrypsin",[16]; [20],–
same,"Antibacterial ability after Lipase, α-AMYLASE",[16]; [21],+
same,"Antibacterial ability after Trypsin, pepsin",[16]; [22],+
same,"Antibacterial ability after 60, 80, and 100°C","[17]; heated for 10, 20, or 30 min",+
same,Antibacterial ability after 2 months at 4°C,[17]; long-term storage,+
same,Antibacterial ability after 37°C for 14 d,[17]; long-term storage,+
same,Antibacterial ability after pH 2–7,[17]; [19],+
same,Antibacterial ability after pH 9–10,[17]; [19],–
"nisin: typical class I (lanthionine-based) bacteriocin, > 90% pure, J & K Chemical Technology (I[Dhb]SI[Dha]LCTPGCKTGALMGCNMKTATCHCSIHV[Dha]K; bridge 23-26, 13-19, 8-11, 25-28, 3-7; not fully specified (residues 3, 8, 13, 23, 25, bridges); UniProt P13068 24-57, looked up) [reference compound]",Expression of the luxS gene,[1],did not show a similar function
same,Time within which all cells were inactivated,[11],≤ 180 min
same,MIC,[18],16 to 32 µg/mL
